Earlier results as cited in US8263663B2, “Azide functionalized peptide targeting groups” (Intezyne Technologies, Inc., priority 2005, dated 2012).

Conditions: at similar concentrations (to 225 μg/mL)

**Q.** With COc1cccc2c1C(=O)c1c(O)c3c(c(O)c1C2=O)C[C@@](O)(C(=O)CO)C[C@@H]3O[C@H]1C[C@H](N)[C@H](O)[C@H](C)O1 [DOX, doxorubicin] as the compound, how does the hemolysis read?
**A.** Its hemolysis is greater than 10%.
